Paper PMC8134461, “A physicochemical assessment of the thermal stability of dextrin–colistin conjugates” (Scientific Reports, 2021)
Structures can show the parent of a compound that is named as a salt. Positions of bridges follow the written chain, without caps; N, C: chain ends. Non-standard residues stand in square brackets, D forms with d. Residues, ends and D or L forms follow the SMILES beside them. *: point of attachment. X1 = CC[C@H](C)CCCCC(=O)*; Dab = NCC[C@H](N)C(=O)O

What was measured:
[1] = system: V5 Escherichia coli AIM-1; assay: MIC assay (broth microdilution) after storage; type: cell-based; conditions: 16–20 h, mode (n = 3), equivalent colistin concentration for conjugates; for MIC, Initial: before storage, 3 mg/mL in PBS, broth microdilution in MH broth; for MIC, storage temperature 4 °C: stored in PBS at 4 °C for 12 months; for MIC, storage temperature 4 °C / MIC, storage temperature 21 °C / MIC, storage temperature 37 °C / MIC, storage temperature -20 °C / MIC, repeat freeze–thaw: broth microdilution, MH broth; for MIC, storage temperature 21 °C: stored in PBS at 21 °C for 12 months; for MIC, storage temperature 37 °C: stored in PBS at 37 °C for 12 months; for MIC, storage temperature -20 °C: stored in PBS at -20 °C for 12 months; for MIC, repeat freeze–thaw: weekly freeze-thawing for 5 weeks (-20 °C, defrosted 1 h at 20–22 °C)
Protocol: (§1) The clinical isolates (V5 Escherichia coli AIM-1, V6 Klebsiella pneumoniae IR25 and V19 Acinetobacter baumannii 7789) and susceptibility testing method have been previously described by Khan et al.[33] Bacterial colonies were grown on blood agar supplemented with 5% v/v defibrinated horse blood. Overnight cultures were prepared in tryptone soy broth (TSB) and Mueller–Hinton broth (MHB) was used for MIC determination (LabM; Bury, UK).
(§2) Three primary batches of colistin sulfate, CMS and dextrin-colistin conjugates were dissolved in PBS at 3 mg/mL and stored at − 20, 4, 21 and 37 °C for 0, 1, 3, 6, 9 and 12 months. In addition, to test the effect of repeated freeze–thaw on stability, a separate set of solutions were stored at − 20 °C and defrosted for 1 h at 20–22 °C weekly for 5 cycles. Samples were analyzed using FPLC (free drug) and GPC (saccharide release) and antimicrobial activity, UV/vis absorbance and protein content (bicinchoninic acid (BCA) assay) of the samples stored for 12 months was assessed.
(§3) The minimum inhibitory concentration (MIC) of colistin sulphate, CMS and dextrin-colistin conjugates was determined using the broth microdilution method in MH broth in accordance with standard guidelines. Test organisms were suspended in MH broth (100 µL, 5 × 10^5 colony forming units (CFU)/mL) and incubated in 96-well microtitre plates in serial two-fold dilutions of the test compounds. The MIC was defined as the lowest concentration of test compound that produced no visible growth after 16–20 h. Results were expressed as mode (n = 3).

[2] = Stability during storage in PBS: saccharide release and elution profile by GPC; type: physicochemical; conditions: 3 mg/mL in PBS, up to 12 months; Ultrahydrogel 120, RI; CMS: after storage above -20 °C
Protocol: as §2
GPC was performed using an Ultrahydrogel guard column and two Ultrahydrogel 120 columns (7.8 mm × 300 mm) from Waters (Elstree, UK) in series, connected to a Jasco PU-1580 HPLC pump with PBS buffer eluent and a flow rate of 1 mL/min. Samples (300 μL) were injected into a 100 μL loop and the eluate was monitored using a Jasco MD-2010 multi-wavelength UV detector (210 and 280 nm) and a Gilson 153 differential refractometer (Middleton, WI, USA) connected to a Polymer Laboratories PL DataStream (Church Stretton, UK). Dual detection enabled distinction of dextrin and saccharide components that are not bound to colistin. Cirrus GPC software (version 3.2, 2006) from Polymer Laboratories (Church Stretton, UK) was used for data analysis. Glucose and maltose oligomers (DP 2, 3, 6 and 7) were employed for calibration. […]

[3] = system: V5 Escherichia coli AIM-1, V6 Klebsiella pneumoniae IR25 and V19 Acinetobacter baumannii 7789; assay: Antimicrobial activity after storage, MIC assay, statement over all test strains; type: cell-based; conditions: repeated freeze–thaw or storage in solution for up to 12 months at -20, 4 or 21 °C
Protocol: as §1, §2
The minimum inhibitory concentration (MIC) of colistin sulphate, CMS and dextrin-colistin conjugates was determined using the broth microdilution method in MH broth in accordance with standard guidelines. […] Results were expressed as mode (n = 3).

[4] = system: V6 Klebsiella pneumoniae IR25; type: cell-based; conditions: 16–20 h, mode (n = 3), equivalent colistin concentration for conjugates; for MIC, Initial: before storage, 3 mg/mL in PBS, broth microdilution in MH broth; for MIC, storage temperature 4 °C: stored in PBS at 4 °C for 12 months; for MIC, storage temperature 4 °C / MIC, storage temperature 21 °C / MIC, storage temperature 37 °C / MIC, storage temperature -20 °C / MIC, repeat freeze–thaw: broth microdilution, MH broth; for MIC, storage temperature 21 °C: stored in PBS at 21 °C for 12 months; for MIC, storage temperature 37 °C: stored in PBS at 37 °C for 12 months; for MIC, storage temperature -20 °C: stored in PBS at -20 °C for 12 months; for MIC, repeat freeze–thaw: weekly freeze-thawing for 5 weeks (-20 °C, defrosted 1 h at 20–22 °C)
Protocol: as §1, §2, §3

[5] = system: V19 Acinetobacter baumannii 7789; type: cell-based; conditions: 16–20 h, mode (n = 3), equivalent colistin concentration for conjugates; for MIC, Initial: before storage, 3 mg/mL in PBS, broth microdilution in MH broth; for MIC, storage temperature 4 °C: stored in PBS at 4 °C for 12 months; for MIC, storage temperature 4 °C / MIC, storage temperature 21 °C / MIC, storage temperature 37 °C / MIC, storage temperature -20 °C / MIC, repeat freeze–thaw: broth microdilution, MH broth; for MIC, storage temperature 21 °C: stored in PBS at 21 °C for 12 months; for MIC, storage temperature 37 °C: stored in PBS at 37 °C for 12 months; for MIC, storage temperature -20 °C: stored in PBS at -20 °C for 12 months; for MIC, repeat freeze–thaw: weekly freeze-thawing for 5 weeks (-20 °C, defrosted 1 h at 20–22 °C)
Protocol: as §1, §2, §3

| Compound | MIC, Initial [1] [mg/L] | MIC, storage temperature 4 °C [1] [mg/L] | MIC, storage temperature 21 °C [1] [mg/L] | MIC, storage temperature 37 °C [1] [mg/L] | MIC, storage temperature -20 °C [1] [mg/L] | MIC, repeat freeze–thaw [1] [mg/L] | change of GPC elution profile after storage [2] | change of antimicrobial activity (MIC) after storage [3] | MIC, Initial [4] [mg/L] | MIC, storage temperature 4 °C [4] [mg/L] | MIC, storage temperature 21 °C [4] [mg/L] | MIC, storage temperature 37 °C [4] [mg/L] | MIC, storage temperature -20 °C [4] [mg/L] | MIC, repeat freeze–thaw [4] [mg/L] | MIC, Initial [5] [mg/L] | MIC, storage temperature 4 °C [5] [mg/L] | MIC, storage temperature 21 °C [5] [mg/L] | MIC, storage temperature 37 °C [5] [mg/L] | MIC, storage temperature -20 °C [5] [mg/L] | MIC, repeat freeze–thaw [5] [mg/L] |
| --- | --- | --- | --- | --- | --- | --- | --- | --- | --- | --- | --- | --- | --- | --- | --- | --- | --- | --- | --- | --- |
| CC[C@H](C)CCCCC(=O)N[C@@H](CCN)C(=O)N[C@H](C(=O)N[C@@H](CCN)C(=O)N[C@H]1CCNC(=O)[C@H]([C@@H](C)O)NC(=O)[C@H](CCN)NC(=O)[C@H](CCN)NC(=O)[C@H](CC(C)C)NC(=O)[C@@H](CC(C)C)NC(=O)[C@H](CCN)NC1=O)[C@@H](C)O [Colistin sulfate, colistin sulfate] (X1-[Dab]T[Dab][Dab][Dab][dL]L[Dab][Dab]T; lactam 4-C (inferred); N-terminus assumed) | 0.004 | 0.002 | 0.016 | 0.25 | 0.002 | 0.004 | largely unchanged | unaffected | 0.125 | 0.125 | 0.5 | > 128 | 0.063 | 0.25 | 0.063 | 0.031 | 0.125 | 32 | 0.063 | 0.063 |
| Colistimethate sodium [CMS] | 0.125 | 0.063 | 0.063 | 8 | 0.031 | 0.031 | Significant changes in the elution profile | unaffected | 2 | 1 | 1 | 128 | 1 | 0.5 | 0.5 | 0.125 | 0.25 | 64 | 0.25 | 0.125 |
